Measurements: patent US10801054B2 (priority 2013, dated 2020)
Several values for one entry are separate records, joined by “and”; a condition that tells them apart may be missing. Equal values may be shown once.

Test system: Phage litmus

SMILES | Color change of Phage litmus bands upon exposure | Red-green-blue (RGB) color differences G3 | Red-green-blue (RGB) color differences R1 | Red-green-blue (RGB) color differences R3 | Time in which all color matrices of the Phage litmus responded | Red-green-blue (RGB) color differences G1 | Red-green-blue (RGB) color differences R4
CCO [EtOH, ethanol] | immediately changed color | 3.32 and 2.87 and 2.98 | 1.22 and 1.81 and 1.06 | 2.54 and 1.97 and 2.26 | 30 s | – | –
CCOCC [Ether, diethyl ether] | immediately changed color | – | 1.31 and 1.20 and 1.24 | 1.15 and 1.53 and 0.91 | 30 s | 0.38 and 0.56 and 0.39 | 1.30 and 1.54 and 1.12
CCCCCC [Hexane, n-hexane] | immediately changed color | – | – | 0.69 and 0.99 and 0.53 | 30 s | – | –
